Experimental data from patent US9765063B2, “Amido compounds as RORγt modulators and uses thereof” (New York University, priority 2011, dated 2017).

Tests used:
[1] = Half-life in Human Liver Microsomes (HLM); type: in vitro ADME; conditions: for % Remaining @ 60 min / half-life at 1 μM / microsomal CLint at 1 μM: 1 μM compound, 0.78 mg/mL HLM, 37° C.; for half-life at 1 μM / microsomal CLint at 1 μM: human, human liver microsomes, pH 7.4; for half-life at 1 μM: Half-life=ln 2/k; for microsomal CLint at 1 μM: read-out: CLint (uM/Min/mg proteins)
Experimental: Test compounds (1 μM) are incubated with 3.3 mM MgCl2 and 0.78 mg/mL HLM (HL101) in 100 mM potassium phosphate buffer (pH 7.4) at 37° C. on the 96-deep well plate. The reaction mixture is split into two groups, a non-P450 and a P450 group. NADPH is only added to the reaction mixture of the P450 group. An aliquot of samples of the P450 group is collected at 0, 10, 30, and 60 min time points, where the 0 min time point indicated the lime at which NADPH is added into the reaction mixture of the P450 group. […] Collected aliquots are extracted with acetonitrile solution containing an internal standard. […] The compound concentration in supernatant is measured by LC/MS/MS system.
The half-life value is obtained by plotting the natural logarithm of the peak area ratio of compounds/internal standard versus time. The slope of the line of best fit through the points yields the rate of metabolism (k). This is converted to a half-life value using following equations: Half-life=ln 2/k

RORγt = biological target: T1, RORγt (Mus musculus, UniProt P51450); experiment: RORγt S2 cell reporter assay (Gal4-RORγt fusion, UAS-luciferase); type: cell-based; conditions: Table 1
T1 construct: expressed in transfected cells; the other entry of the earlier key: GAL4 (P04386, Regulatory protein GAL4)
Excerpt: Methods: The Drosophila S2 cell line was originally purchased from Invitrogen and was maintained in Schneider's medium supplemented with 10% heat-inactivated bovine fetal calf serum and antibiotics (Invitrogen). […] The resulting chimeric gene was subcloned into the copper inducible pMT/V5-His A vector (available from Invitrogen).
Renilla luciferase construct under the polIII promoter was obtained from Dr. Dasgupta's laboratory (NYU medical center). In order to generate stable cell lines, cells were co-transfected with pMT-G4DBD-RORγt, pMT-G4DBD-RORα, pMT-G4DBD-DHR3, or pMT-G4DBDVP16 and pHygro plasmids (Invitrogen) and screened for resistant colonies in the presence of hygromycin (0.3 mg/mL). […] Using similar methods, stable clones with genomic integration of the luciferase reporters and other reporters were generated such as pMT-RORα_luc, pMT-DHR3_luc, or pMT-VP16_luc.
Methods: 600 G4DBD-RORγ/γt-luc reporter (#25) or G4DBD-VP16-luc reporter cells were distributed into each well of 1,536-well white bottom plates in 4 μl S2 cell culture volume containing hygromicin (300 μg/ml) and puromycin (2 μg/ml). […] After one-hour incubation, 1 of culture medium solution containing copper sulfate (to final 0.7 mM) and 10 μM RORγ/γt antagonists were added to each well. After 20-hour incubation at ambient temperature, 1.5 μl firefly luciferase detection mix was added and the luciferase activities were measured in 10 min. ViewLux luminometers were used for measuring luciferase signal.
A cell-based reporter assay was used to detect RORγt-mediated activity. This assay, called RORγt employed Drosophila Schneider cells that were stably transfected with two vectors: a gene expressing a fusion of the Gal4 DNA binding domain and RORγt transactivation domain under the control of the metallothionine promoter and a Photinus luciferase reporter regulated by the Gal4 binding site enhancer, UAS. […] Cells (600/well) were dispensed into white solid 1536-well plates (Greiner) using a solenoid-based dispenser. Following transfer of […] compound or DMSO vehicle by a pin tool, the plates were incubated 1 hr at ambient temperature, and 1 uL/well copper sulfate (700 uM final concentration) was added. The plates were centrifuged 15 s at 1000 RPM and incubated 20 hr at ambient temperature. After addition of 1.5 uL Photinus luciferase detection reagent, the plates were incubated 10 min at ambient temperature and then read by a ViewLux (Perkin Elmer) to detect luminescence. […] Efficacy is expressed as % of the maximal response of control inhibitor (Digoxin), set at 100%.

T1 sequence (P51450 with tags, fused parts or gaps): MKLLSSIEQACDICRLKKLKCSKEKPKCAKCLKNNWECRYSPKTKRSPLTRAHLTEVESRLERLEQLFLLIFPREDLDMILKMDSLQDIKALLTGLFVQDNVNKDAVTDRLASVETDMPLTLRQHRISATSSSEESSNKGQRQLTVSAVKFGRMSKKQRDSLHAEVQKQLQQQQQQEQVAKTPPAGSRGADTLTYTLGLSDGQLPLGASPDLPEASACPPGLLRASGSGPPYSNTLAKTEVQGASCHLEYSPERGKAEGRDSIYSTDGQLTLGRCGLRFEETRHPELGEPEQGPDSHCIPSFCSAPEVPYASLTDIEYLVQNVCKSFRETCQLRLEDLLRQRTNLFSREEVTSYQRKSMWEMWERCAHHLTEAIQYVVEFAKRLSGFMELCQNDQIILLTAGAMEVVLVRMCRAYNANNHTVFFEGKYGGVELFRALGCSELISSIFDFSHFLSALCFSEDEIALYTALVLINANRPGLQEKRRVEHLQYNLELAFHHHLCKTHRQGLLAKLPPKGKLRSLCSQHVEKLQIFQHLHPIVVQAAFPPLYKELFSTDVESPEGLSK

For `CC1CC(C)CN(C(=O)CC(c2ccc(-n3cncn3)cc2)c2ccc3c(c2)OCO3)C1` (stereo not drawn) [Compound 141, 3-(4-(1H-1,2,4-Triazol-1-yl)phenyl)-3-(benzo[d][1,3]dioxol-5-yl)-1-(3,5-dimethylpiperidin-1-yl)propan-1-one], the “% Remaining @ 60 min” value [1] was 9.02%, the “stability compared with compounds 150 and 157” value ([1]; HLM, Table 3 data) was “better or improved stability over the compounds with IDs 150 and 157” and the half-life at 1 μM [1] was 12.9 min. For the same compound, the microsomal CLint at 1 μM [1] was 108 µL/min/mg.
For `COc1ccc2ccccc2c1C(c1ccc(F)cc1)C(C)(C)C(=O)N1CC(C)CC(C)C1` (stereo not drawn) [Compound 157, reference compound], the “% Remaining @ 60 min” value [1] was 6.78%, the half-life at 1 μM [1] was 6.9 min and the microsomal CLint at 1 μM [1] was 201 µL/min/mg.
For `COc1cc(OC)c(C(c2ccccc2)C(C)(C)C(=O)N2CC(C)OC(C)C2)c(OC)c1` (stereo not drawn) [Compound 150, reference compound], the “% Remaining @ 60 min” value [1] was 6.79%, the half-life at 1 μM [1] was 8 min and the microsomal CLint at 1 μM [1] was 173 µL/min/mg.
In the case of `COc1cc(O)c(C(CC(=O)N2CC(C)CC(C)C2)c2cccs2)c(OC)c1` (stereo not drawn) [Compound 107, 1-(3,5-Dimethylpiperidin-1-yl)-3-(2-hydroxy-4,6-dimethoxyphenyl)-3-(thiophen-2-yl)propan-1-one], the Emax (RORγt; % of the maximal response of control inhibitor (Digoxin), set at 100%, read-out: Efficacy (%)) is reported as 94.9% and the IC50 (RORγt; Drosophila S2 cells, luciferase reporter, read-out: IC50) is reported as 1 to 10 µM.
